Results published in ChEMBL document CHEMBL1201862, “PubChem BioAssay data set” (2004).
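A five-concentration, 48-hour dose response in 96-well plates underlies each endpoint, interpolated linearly between surrounding concentrations. GI50 is the concentration that inhibits growth by half.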 Activity calls are given as the source filed them. Cut-off read from the data, not from the text of the source: active = GI50 up to about 1.1 µM and inactive = higher.

What was measured:
Test in all cases: DTP human tumour cell line panel, 48 h
786-0 = test system: 786-0
A498 = test system: A498
A549 = test system: A549
ACHN = test system: ACHN
BT-549 = test system: BT-549
CAKI-1 = test system: CAKI-1
COLO 205 = test system: COLO 205
DU-145 = test system: DU-145
EKVX = test system: EKVX
HCC 2998 = test system: HCC 2998
HCT-116 = test system: HCT-116
HCT-15 = test system: HCT-15
HOP-62 = test system: HOP-62
HOP-92 = test system: HOP-92
HT-29 = test system: HT-29
Hs-578T = test system: Hs-578T
IGROV-1 = test system: IGROV-1
K562 = test system: K562
KM12 = test system: KM12
LOX IMVI = test system: LOX IMVI
M14 = test system: M14
MCF7 = test system: MCF7
MDA-MB-231 = test system: MDA-MB-231
MDA-MB-435 = test system: MDA-MB-435
MDA-N = test system: MDA-N
MOLT-4 = test system: MOLT-4
Malme-3M = test system: Malme-3M
NCI-H226 = test system: NCI-H226
NCI-H23 = test system: NCI-H23
NCI-H460 = test system: NCI-H460
NCI-H522 = test system: NCI-H522
NCI/ADR-RES = test system: NCI/ADR-RES
OVCAR-3 = test system: OVCAR-3
OVCAR-4 = test system: OVCAR-4
OVCAR-5 = test system: OVCAR-5
OVCAR-8 = test system: OVCAR-8
PC-3 = test system: PC-3
RPMI-8226 = test system: RPMI-8226
RXF 393 = test system: RXF 393
SF-268 = test system: SF-268
SF-295 = test system: SF-295
SK-MEL-28 = test system: SK-MEL-28
SK-MEL-2 = test system: SK-MEL-2
SK-MEL-5 = test system: SK-MEL-5
SK-OV-3 = test system: SK-OV-3
SN12C = test system: SN12C
SNB-19 = test system: SNB-19
SNB-75 = test system: SNB-75
SW-620 = test system: SW-620
T47D = test system: T47D
TK-10 = test system: TK-10
U-251 = test system: U-251
UACC-257 = test system: UACC-257
UACC-62 = test system: UACC-62
UO-31 = test system: UO-31
CCRF-CEM = test system: CCRF-CEM
HL-60 = test system: HL-60
SF-539 = test system: SF-539
SR = test system: SR

Measured: GI50

Cn1ncc2c(NCCc3ccccc3)nc(Cl)nc21
25.4 µM: HCT-15
inactive: 786-0 23.4 µM | A498 17.7 µM | A549 20.4 µM | ACHN 28.6 µM | BT-549 23.5 µM | CAKI-1 28.1 µM | COLO 205 17.3 µM | DU-145 44.9 µM | EKVX 1.75 µM | HCC 2998 18.8 µM | HCT-116 27.8 µM | HOP-62 24.4 µM | HOP-92 15.3 µM | HT-29 14.7 µM | Hs-578T 8.93 µM | IGROV-1 33.1 µM | K562 17.6 µM | KM12 26.2 µM | LOX IMVI 16.7 µM | M14 15 µM | MCF7 30 µM | MDA-MB-231 3.97 µM | MDA-MB-435 20.6 µM | MDA-N 23.2 µM | MOLT-4 14.7 µM | Malme-3M 58.9 µM | NCI-H226 21.5 µM | NCI-H23 24.8 µM | NCI-H460 15.6 µM | NCI-H522 21.9 µM | NCI/ADR-RES 16.4 µM | OVCAR-3 33.3 µM | OVCAR-4 18.8 µM | OVCAR-5 14 µM | OVCAR-8 27.2 µM | PC-3 17.9 µM | RPMI-8226 13.7 µM | RXF 393 17.1 µM | SF-268 38.2 µM | SF-295 16.4 µM | SK-MEL-28 28.7 µM | SK-MEL-2 10.7 µM | SK-MEL-5 17.6 µM | SK-OV-3 19.5 µM | SN12C 44.6 µM | SNB-19 44.9 µM | SNB-75 21.1 µM | SW-620 23.3 µM | T47D 11.4 µM | TK-10 20.9 µM | U-251 30.2 µM | UACC-257 2.48 µM | UACC-62 5.97 µM | UO-31 19 µM

C[C@@H](CC(O)C(O)C(C)(C)O)C1CCC23CC12CCC1[C@@]2(C)CCC(O)C(C)(C)C2CC(OC2OC(CO)C(O)C(O)C2O)[C@]13C (stereo not given in full)
inactive: 786-0 > 10 µM | A498 > 10 µM | A549 > 10 µM | ACHN > 10 µM | BT-549 > 10 µM | CAKI-1 > 10 µM | CCRF-CEM > 10 µM | COLO 205 > 10 µM | DU-145 > 10 µM | EKVX > 10 µM | HCC 2998 > 10 µM | HCT-116 > 10 µM | HL-60 > 10 µM | HOP-62 > 10 µM | HOP-92 > 10 µM | HT-29 > 10 µM | Hs-578T > 10 µM | IGROV-1 > 10 µM | K562 > 10 µM | KM12 > 10 µM | LOX IMVI > 10 µM | M14 > 10 µM | MCF7 > 10 µM | MDA-MB-231 > 10 µM | MDA-MB-435 > 10 µM | MDA-N > 10 µM | MOLT-4 > 10 µM | Malme-3M > 10 µM | NCI-H226 > 10 µM | NCI-H23 > 10 µM | NCI-H460 > 10 µM | NCI-H522 > 10 µM | NCI/ADR-RES > 10 µM | OVCAR-3 > 10 µM | OVCAR-4 > 10 µM | OVCAR-5 > 10 µM | OVCAR-8 > 10 µM | PC-3 > 10 µM | RPMI-8226 > 10 µM | RXF 393 > 10 µM | SF-268 > 10 µM | SF-295 > 10 µM | SF-539 > 10 µM | SK-MEL-28 > 10 µM | SK-MEL-2 > 10 µM | SK-MEL-5 > 10 µM | SK-OV-3 > 10 µM | SN12C > 10 µM | SNB-19 > 10 µM | SNB-75 > 10 µM | SW-620 > 10 µM | T47D > 10 µM | TK-10 > 10 µM | U-251 > 10 µM | UACC-257 > 10 µM | UACC-62 > 10 µM | UO-31 > 10 µM
> 10 µM: HCT-15

COc1ccc(/C=N/n2c(-c3ccccc3)n[nH]c2=O)cc1
> 100 µM: HCT-15
inactive: 786-0 > 100 µM | A498 25.3 µM | A549 95.1 µM | ACHN > 100 µM | BT-549 > 100 µM | CAKI-1 > 100 µM | CCRF-CEM > 100 µM | COLO 205 > 100 µM | DU-145 > 100 µM | EKVX > 100 µM | HCC 2998 > 100 µM | HCT-116 74.5 µM | HOP-62 > 100 µM | HT-29 > 100 µM | Hs-578T 50.1 µM | K562 > 100 µM | KM12 48.8 µM | M14 > 100 µM | MCF7 > 100 µM | MDA-MB-231 > 100 µM | MDA-MB-435 > 100 µM | MDA-N > 100 µM | MOLT-4 46.9 µM | Malme-3M > 100 µM | NCI-H226 > 100 µM | NCI-H23 > 100 µM | NCI-H460 > 100 µM | NCI/ADR-RES > 100 µM | OVCAR-3 > 100 µM | OVCAR-4 53.8 µM | OVCAR-5 > 100 µM | OVCAR-8 > 100 µM | PC-3 > 100 µM | RPMI-8226 > 100 µM | SF-268 > 100 µM | SF-295 > 100 µM | SF-539 > 100 µM | SK-MEL-28 > 100 µM | SK-MEL-2 > 100 µM | SK-OV-3 > 100 µM | SN12C > 100 µM | SNB-19 > 100 µM | SNB-75 > 100 µM | SW-620 > 100 µM | T47D > 100 µM | U-251 > 100 µM | UACC-257 > 100 µM | UACC-62 > 100 µM | UO-31 95.3 µM

CN1CCN(c2ncc3c(n2)sc2c(=O)n(-c4ccccc4)cnc23)CC1
> 100 µM: HCT-15
inactive: 786-0 > 100 µM | A498 > 100 µM | A549 > 100 µM | ACHN > 100 µM | BT-549 > 100 µM | CAKI-1 > 100 µM | CCRF-CEM > 100 µM | COLO 205 > 100 µM | DU-145 > 100 µM | HCC 2998 > 100 µM | HCT-116 > 100 µM | HOP-62 > 100 µM | HOP-92 > 100 µM | HT-29 > 100 µM | Hs-578T > 100 µM | IGROV-1 > 100 µM | K562 > 100 µM | KM12 > 100 µM | LOX IMVI > 100 µM | M14 > 100 µM | MDA-MB-231 > 100 µM | MDA-MB-435 > 100 µM | MDA-N > 100 µM | MOLT-4 > 100 µM | Malme-3M > 100 µM | NCI-H226 > 100 µM | NCI-H23 > 100 µM | NCI-H460 > 100 µM | NCI-H522 > 100 µM | NCI/ADR-RES > 100 µM | OVCAR-3 > 100 µM | OVCAR-4 > 100 µM | OVCAR-5 > 100 µM | OVCAR-8 > 100 µM | PC-3 > 100 µM | RPMI-8226 > 100 µM | RXF 393 > 100 µM | SF-268 > 100 µM | SF-295 > 100 µM | SK-MEL-28 > 100 µM | SK-MEL-2 > 100 µM | SK-MEL-5 > 100 µM | SK-OV-3 > 100 µM | SN12C > 100 µM | SNB-19 > 100 µM | SNB-75 > 100 µM | SR > 100 µM | SW-620 > 100 µM | T47D > 100 µM | TK-10 > 100 µM | U-251 > 100 µM | UACC-257 > 100 µM | UACC-62 > 100 µM | UO-31 > 100 µM

Cc1ccc(S(=O)(=O)Nc2ccccc2C(=O)c2ccc(C)c(C)c2)cc1
inactive: 786-0 > 100 µM | A498 94.6 µM | A549 > 100 µM | ACHN 55.2 µM | BT-549 > 100 µM | CAKI-1 > 100 µM | COLO 205 > 100 µM | DU-145 > 100 µM | EKVX > 100 µM | HCT-116 > 100 µM | HOP-62 > 100 µM | HT-29 > 100 µM | Hs-578T 60.5 µM | IGROV-1 34.6 µM | KM12 63.4 µM | LOX IMVI > 100 µM | M14 > 100 µM | MCF7 52.7 µM | MDA-MB-231 > 100 µM | MDA-MB-435 41.9 µM | MDA-N 74.3 µM | Malme-3M 59 µM | NCI-H226 > 100 µM | NCI-H23 > 100 µM | NCI-H460 80.2 µM | NCI-H522 39.9 µM | NCI/ADR-RES > 100 µM | OVCAR-3 83.9 µM | OVCAR-4 > 100 µM | OVCAR-5 > 100 µM | OVCAR-8 > 100 µM | PC-3 > 100 µM | RPMI-8226 42.9 µM | RXF 393 > 100 µM | SF-268 > 100 µM | SF-295 75 µM | SF-539 > 100 µM | SK-MEL-28 > 100 µM | SK-MEL-2 > 100 µM | SK-MEL-5 35 µM | SK-OV-3 > 100 µM | SN12C > 100 µM | SNB-19 > 100 µM | SNB-75 > 100 µM | SW-620 > 100 µM | T47D 71.1 µM | TK-10 > 100 µM | U-251 85.1 µM | UACC-257 53.1 µM | UACC-62 88.5 µM | UO-31 > 100 µM
> 100 µM: HCT-15
